In patent US8192962B2, “Processes for detecting toxic substances” (Daikin Industries, Ltd., priority 2001, dated 2012):

System: Unknown protein yeast genes
Assay: DNA chip mRNA expression in yeast, unknown protein yeast genes (Table 1)
Assay type: cell-based, Saccharomyces cerevisiae S288C
Procedure, shortened: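 S. cerevisiae S288C grown at 25° C in YPD were exposed in log phase for two hours to one toxic chemical at a growth-inhibiting, non-lethal concentration; untreated cells served as control. Poly(A) mRNA was reverse-transcribed with Cy3/Cy5-dUTP and hybridized to a whole-genome yeast DNA chip at 65° C for over 12 hours; values are fluorescence ratios versus untreated.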

N#Cc1c(Cl)c(Cl)c(Cl)c(C#N)c1Cl [(9), 2,4,5,6-tetrachloro-1,3-benzenedicarbonitrile]
The level of expressed mRNA in the presence of chemical substance/The level of expressed mRNA in the absence of chemical substance (yeast gene YKL195W, incubated two hours with chemical substance): 3.6 | The level of expressed mRNA in the presence of chemical substance/The level of expressed mRNA in the absence of chemical substance (yeast gene YKR018C): 3.9 | The level of expressed mRNA in the presence of chemical substance/The level of expressed mRNA in the absence of chemical substance (yeast gene YKR046C): 3.9 | The level of expressed mRNA in the presence of chemical substance/The level of expressed mRNA in the absence of chemical substance (yeast gene YKR091W, incubated two hours with chemical substance): 1.0 | The level of expressed mRNA in the presence of chemical substance/The level of expressed mRNA in the absence of chemical substance (yeast gene YLR054C, incubated two hours with chemical substance): 2.7 | The level of expressed mRNA in the presence of chemical substance/The level of expressed mRNA in the absence of chemical substance (yeast gene YLR149C, incubated two hours with chemical substance): 6.2 | The level of expressed mRNA in the presence of chemical substance/The level of expressed mRNA in the absence of chemical substance (yeast gene YLR152C, incubated two hours with chemical substance): 0.6 | The level of expressed mRNA in the presence of chemical substance/The level of expressed mRNA in the absence of chemical substance (yeast gene YLR161W): 1.0 | The level of expressed mRNA in the presence of chemical substance/The level of expressed mRNA in the absence of chemical substance (yeast gene YLR177W): 1.0 | The level of expressed mRNA in the presence of chemical substance/The level of expressed mRNA in the absence of chemical substance (yeast gene YLR194C, incubated two hours with chemical substance): 0.9 | The level of expressed mRNA in the presence of chemical substance/The level of expressed mRNA in the absence of chemical substance (yeast gene YLR324W, incubated two hours with chemical substance): 3.1 | The level of expressed mRNA in the presence of chemical substance/The level of expressed mRNA in the absence of chemical substance (yeast gene YLR338W): 7.9 | The level of expressed mRNA in the presence of chemical substance/The level of expressed mRNA in the absence of chemical substance (yeast gene YLR346C): 8.6 | The level of expressed mRNA in the presence of chemical substance/The level of expressed mRNA in the absence of chemical substance (yeast gene YLR350W, incubated two hours with chemical substance): 0.6 | The level of expressed mRNA in the presence of chemical substance/The level of expressed mRNA in the absence of chemical substance (yeast gene YLR387C, incubated two hours with chemical substance): 7.8 | The level of expressed mRNA in the presence of chemical substance/The level of expressed mRNA in the absence of chemical substance (yeast gene YLR460C): 13.9 | The level of expressed mRNA in the presence of chemical substance/The level of expressed mRNA in the absence of chemical substance (yeast gene YML117W, incubated two hours with chemical substance): 1.0 | The level of expressed mRNA in the presence of chemical substance/The level of expressed mRNA in the absence of chemical substance (yeast gene YMR009W, incubated two hours with chemical substance): 3.4 | The level of expressed mRNA in the presence of chemical substance/The level of expressed mRNA in the absence of chemical substance (yeast gene YMR067C, incubated two hours with chemical substance): 4.0 | The level of expressed mRNA in the presence of chemical substance/The level of expressed mRNA in the absence of chemical substance (yeast gene YMR090W): 16.7 | The level of expressed mRNA in the presence of chemical substance/The level of expressed mRNA in the absence of chemical substance (yeast gene YMR097C, incubated two hours with chemical substance): 2.1 | The level of expressed mRNA in the presence of chemical substance/The level of expressed mRNA in the absence of chemical substance (yeast gene YMR102C, incubated two hours with chemical substance): 1.7 | The level of expressed mRNA in the presence of chemical substance/The level of expressed mRNA in the absence of chemical substance (yeast gene YMR107W, incubated two hours with chemical substance): 6.0 | The level of expressed mRNA in the presence of chemical substance/The level of expressed mRNA in the absence of chemical substance (yeast gene YMR180C, incubated two hours with chemical substance): 1.8 | The level of expressed mRNA in the presence of chemical substance/The level of expressed mRNA in the absence of chemical substance (yeast gene YMR184W, incubated two hours with chemical substance): 2.1 | The level of expressed mRNA in the presence of chemical substance/The level of expressed mRNA in the absence of chemical substance (yeast gene YMR191W, incubated two hours with chemical substance): 2.2 | The level of expressed mRNA in the presence of chemical substance/The level of expressed mRNA in the absence of chemical substance (yeast gene YMR251W): 3.1 | The level of expressed mRNA in the presence of chemical substance/The level of expressed mRNA in the absence of chemical substance (yeast gene YMR295C, incubated two hours with chemical substance): 1.0 | The level of expressed mRNA in the presence of chemical substance/The level of expressed mRNA in the absence of chemical substance (yeast gene YMR316W, incubated two hours with chemical substance): 2.1 | The level of expressed mRNA in the presence of chemical substance/The level of expressed mRNA in the absence of chemical substance (yeast gene YNL044W, incubated two hours with chemical substance): 0.8 | The level of expressed mRNA in the presence of chemical substance/The level of expressed mRNA in the absence of chemical substance (yeast gene YNL074C, incubated two hours with chemical substance): 1.5 | The level of expressed mRNA in the presence of chemical substance/The level of expressed mRNA in the absence of chemical substance (yeast gene YNL092W, incubated two hours with chemical substance): 2.3 | The level of expressed mRNA in the presence of chemical substance/The level of expressed mRNA in the absence of chemical substance (yeast gene YNL115C, incubated two hours with chemical substance): 2.6 | The level of expressed mRNA in the presence of chemical substance/The level of expressed mRNA in the absence of chemical substance (yeast gene YNL156C, incubated two hours with chemical substance): 2.4 | The level of expressed mRNA in the presence of chemical substance/The level of expressed mRNA in the absence of chemical substance (yeast gene YNL234W, incubated two hours with chemical substance): 2.6 | The level of expressed mRNA in the presence of chemical substance/The level of expressed mRNA in the absence of chemical substance (yeast gene YNL281W, incubated two hours with chemical substance): 2.8 | The level of expressed mRNA in the presence of chemical substance/The level of expressed mRNA in the absence of chemical substance (yeast gene YNL305C, incubated two hours with chemical substance): 2.9 | The level of expressed mRNA in the presence of chemical substance/The level of expressed mRNA in the absence of chemical substance (yeast gene YNR068C, incubated two hours with chemical substance): 6.7 | The level of expressed mRNA in the presence of chemical substance/The level of expressed mRNA in the absence of chemical substance (yeast gene YOL032W, incubated two hours with chemical substance): 4.5 | The level of expressed mRNA in the presence of chemical substance/The level of expressed mRNA in the absence of chemical substance (yeast gene YOL036W, incubated two hours with chemical substance): 3.1 | The level of expressed mRNA in the presence of chemical substance/The level of expressed mRNA in the absence of chemical substance (yeast gene YOL047C, incubated two hours with chemical substance): 0.6 | The level of expressed mRNA in the presence of chemical substance/The level of expressed mRNA in the absence of chemical substance (yeast gene YOL071W, incubated two hours with chemical substance): 4.4 | The level of expressed mRNA in the presence of chemical substance/The level of expressed mRNA in the absence of chemical substance (yeast gene YOL082W, incubated two hours with chemical substance): 3.4 | The level of expressed mRNA in the presence of chemical substance/The level of expressed mRNA in the absence of chemical substance (yeast gene YOL083W, incubated two hours with chemical substance): 2.7 | The level of expressed mRNA in the presence of chemical substance/The level of expressed mRNA in the absence of chemical substance (yeast gene YOL117W, incubated two hours with chemical substance): 1.3 | The level of expressed mRNA in the presence of chemical substance/The level of expressed mRNA in the absence of chemical substance (yeast gene YOL131W, incubated two hours with chemical substance): 8.4 | The level of expressed mRNA in the presence of chemical substance/The level of expressed mRNA in the absence of chemical substance (yeast gene YOL150C): 10.8 | The level of expressed mRNA in the presence of chemical substance/The level of expressed mRNA in the absence of chemical substance (yeast gene YOL162W, incubated two hours with chemical substance): 12.0 | The level of expressed mRNA in the presence of chemical substance/The level of expressed mRNA in the absence of chemical substance (yeast gene YOR019W, incubated two hours with chemical substance): 3.5 | The level of expressed mRNA in the presence of chemical substance/The level of expressed mRNA in the absence of chemical substance (yeast gene YOR161C): 1.0 | The level of expressed mRNA in the presence of chemical substance/The level of expressed mRNA in the absence of chemical substance (yeast gene YOR197W, incubated two hours with chemical substance): 0.8 | The level of expressed mRNA in the presence of chemical substance/The level of expressed mRNA in the absence of chemical substance (yeast gene YPL087W, incubated two hours with chemical substance): 1.0 | The level of expressed mRNA in the presence of chemical substance/The level of expressed mRNA in the absence of chemical substance (yeast gene YPL150W): 3.1 | The level of expressed mRNA in the presence of chemical substance/The level of expressed mRNA in the absence of chemical substance (yeast gene YPL196W, incubated two hours with chemical substance): 10.9 | The level of expressed mRNA in the presence of chemical substance/The level of expressed mRNA in the absence of chemical substance (yeast gene YPL206C, incubated two hours with chemical substance): 1.7 | The level of expressed mRNA in the presence of chemical substance/The level of expressed mRNA in the absence of chemical substance (yeast gene YPL222W, incubated two hours with chemical substance): 7.4 | The level of expressed mRNA in the presence of chemical substance/The level of expressed mRNA in the absence of chemical substance (yeast gene YPL225W): 1.0 | The level of expressed mRNA in the presence of chemical substance/The level of expressed mRNA in the absence of chemical substance (yeast gene YPR023C, incubated two hours with chemical substance): 4.4 | The level of expressed mRNA in the presence of chemical substance/The level of expressed mRNA in the absence of chemical substance (yeast gene YPR151C, incubated two hours with chemical substance): 3.0
